Target: T1, human Plk4 kinase domain (aa 2-275) (Homo sapiens, UniProt O00444)
T1 construct: purified 6×His-tagged human Plk4 kinase domain (aa 2-275); 6xHis; made in house; host or cells: E. coli
T1 sequence (O00444 2-275): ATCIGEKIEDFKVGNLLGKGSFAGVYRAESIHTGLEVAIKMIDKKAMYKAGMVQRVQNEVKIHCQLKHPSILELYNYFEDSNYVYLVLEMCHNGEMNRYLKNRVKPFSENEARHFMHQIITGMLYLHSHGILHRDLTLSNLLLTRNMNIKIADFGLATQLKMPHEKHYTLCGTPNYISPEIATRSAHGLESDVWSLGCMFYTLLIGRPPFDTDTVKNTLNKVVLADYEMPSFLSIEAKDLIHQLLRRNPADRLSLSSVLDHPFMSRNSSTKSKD
Assay: Plk4 kinase assay (ADP-Glo)
Assay type: biochemical
Conditions: Table 1
Description: Kinase assays. […] The Plk4 concentration in the final reaction was 2.5-10 nM with a final pH of 8.0. […] Reactions were allowed to proceed for 4-16 hours at 25° C. Detection was performed using ADP-Glo reagent (Promega), following manufacturer's instructions. Luminescence was measured on an Infinite M1000 plate reader (Tecan). Data were fit using Prism (GraphPad) and Kis were calculated from IC50 data using the Cheng and Prusoff equation (37) or the Copeland formalism for tight-binding inhibitors (38).

Row | SMILES | IC50
1 | COc1c(Nc2cc(C)[nH]n2)nc(Sc2ccccc2)nc1N1CCN(CCN(C)C)CC1 | 100 to 1000 nM
2 | COc1c(Nc2cc(C)[nH]n2)nc(Sc2ccc(S(=O)(=O)Cc3cccc([N+](=O)[O-])c3F)cc2F)nc1N1CCOC[C@H]1C | < 1000 nM
3 | COc1c(Nc2cc(C)[nH]n2)nc(Sc2ccc(S(=O)(=O)Cc3ccc(F)cc3F)cc2)nc1N1CCN(CCN(C)C)CC1 | < 1000 nM
4 | COc1c(Nc2cc(C)[nH]n2)nc(Sc2ccc(S(=O)(=O)Cc3ccccc3)cc2)nc1N1CCC(N2CCN(C)CC2)CC1 | < 1000 nM
5 | COc1c(Nc2cc(C)[nH]n2)nc(Sc2ccc(S(=O)(=O)Cc3cccc(F)c3F)cc2F)nc1N1CCN(CCN(C)C)CC1 | < 1000 nM
6 | COc1c(Nc2cc(C)[nH]n2)nc(Sc2ccc(NC(C)=O)cc2)nc1N1CCN(CC(=O)N(C)C)CC1 | < 1000 nM
7 | COC(=O)c1ccc(Sc2nc(Nc3cc(C)[nH]n3)c(OC)c(N3CCN(CCN(C)C)CC3)n2)cc1 | < 1000 nM
8 | CCN1CCN(c2nc(Sc3ccc(NC(=O)C4CC4)cc3)nc(Nc3cc(C)[nH]n3)c2OC)CC1 | < 1000 nM
9 | COc1c(Nc2cc(C)[nH]n2)nc(Sc2ccc(S(=O)(=O)C(F)c3c(F)c(F)cc(F)c3F)cc2F)nc1N1CCOCC1 (stereo not shown) | < 1000 nM
10 | COc1c(Nc2cc(C)[nH]n2)nc(Sc2ccc(S(=O)(=O)Cc3cccc([N+](=O)[O-])c3)cc2F)nc1N1CCOC[C@H]1C | < 1000 nM
11 | COc1c(Nc2cc(C)[nH]n2)nc(Sc2ccc(S(=O)(=O)Cc3cccc([N+](=O)[O-])c3F)cc2)nc1N1CCN(CCN(C)C)CC1 | < 1000 nM
12 | COc1c(Nc2cc(C)[nH]n2)nc(Nc2ccc(S(=O)(=O)Cc3ccccc3)cc2)nc1N1CCN(CCN(C)C)CC1 | < 1000 nM
13 | COc1c(Nc2cc(C)[nH]n2)nc(Sc2ccc(S(=O)(=O)Cc3ccccc3)cc2)nc1N(C)C | < 1000 nM
14 | COc1c(Nc2cc(C)[nH]n2)nc(Sc2ccc(NC(C)=O)cc2)nc1N1CCC(CC(=O)N2CCCCC2)CC1 | < 1000 nM
15 | COc1c(Nc2cc(C)[nH]n2)nc(Sc2ccc(S(=O)(=O)Cc3cccc([N+](=O)[O-])c3)cc2)nc1N1CCOC[C@@H]1CO | < 1000 nM
16 | COc1c(Nc2cc(C)[nH]n2)nc(Sc2ccc(NC(C)=O)cc2)nc1N1CCC(CC(=O)O)CC1 | < 1000 nM
17 | Cc1cc(Nc2nc(Sc3ccc(N)cc3)nc(N3CCOCC3)c2C)n[nH]1 | < 1000 nM
18 | COc1c(Nc2cc(C)[nH]n2)nc(Sc2ccc(NC(=O)C3CCCC3)cc2)nc1N1CCN(C(C)=O)CC1 | < 1000 nM
19 | COc1c(Nc2nccs2)nc(Sc2ccc(NC(C)=O)cc2)nc1N1CCN(CCN(C)C)CC1 | 100 to 1000 nM
20 | CC(=O)Nc1ccc(Sc2nc(Nc3cc(C)[nH]n3)c(C)c(N3CCN(C)CC3)n2)cc1 | < 1000 nM
21 | COCC(=O)N1CCN(c2nc(Sc3ccccc3)nc(Nc3cc(C)[nH]n3)c2C)CC1 | < 1000 nM
22 | CCOc1c(Nc2cc(C)[nH]n2)nc(Sc2ccc(NC(C)=O)cc2)nc1N1CCN(C(C)=O)CC1 | 100 to 1000 nM
23 | COc1c(Nc2cc(C)[nH]n2)nc(Sc2ccc(NC(C)=O)cc2)nc1N1CC2CCC(C1)N2CCN1CCN(C)CC1 | < 1000 nM
24 | CC(=O)Nc1ccc(Sc2nc(Nc3cc(C)[nH]n3)c(C)c(N3CCC(C)CC3)n2)cc1 | < 1000 nM
25 | CNCCN1CCN(c2nc(Sc3ccc(NC(C)=O)cc3)nc(Nc3cc(C)[nH]n3)c2OC)CC1 | < 1000 nM

Row | SMILES | IC50
26 | COc1c(Nc2cc(C)[nH]n2)nc(Sc2ccc(S(=O)(=O)Cc3cccc([N+](=O)[O-])c3F)cc2F)nc1N1CCN(C)CC1 | < 1000 nM
27 | COc1c(Nc2cc(C)[nH]n2)nc(Sc2ccc(S(=O)(=O)Cc3ccncc3)cc2)nc1N1CCN(CCN(C)C)CC1 | < 1000 nM
28 | COc1c(Nc2cc(C)[nH]n2)nc(Sc2ccc(S(=O)(=O)Cc3cccc(OCc4ccccc4)c3)cc2)nc1N1CCN(CCN(C)C)CC1 | < 1000 nM
29 | CC(=O)Nc1ccc(Sc2nc(Nc3cc(C)[nH]n3)cc(C3CCN(CCN(C)C)CC3)n2)cc1 | 100 to 1000 nM
30 | COc1c(Nc2cc(C)[nH]n2)nc(Sc2ccc(NC(N)=O)cc2)nc1N1CCN(CCN(C)C)CC1 | < 1000 nM
31 | CCS(=O)(=O)c1ccc(Sc2nc(C)c(OC)c(Nc3cc(C)[nH]n3)n2)cc1 | < 1000 nM
32 | COc1c(Nc2cc(C)[nH]n2)nc(Sc2ccc(S(=O)(=O)CCN(C)C)cc2)nc1N1CCN(CCN(C)C)CC1 | < 1000 nM
33 | COc1c(Nc2cc(C)[nH]n2)nc(Sc2ccc(S(=O)(=O)C(C)(C)c3cccc([N+](=O)[O-])c3F)cc2F)nc1N1CCNCC1 | < 1000 nM
34 | COc1c(Nc2cc(C)[nH]n2)nc(Sc2ccc(S(=O)(=O)C(C)(C)c3c(F)c(F)c(F)c(F)c3F)cc2F)nc1N1CCC(N(C)C)CC1 | < 1000 nM
35 | COc1c(Nc2cc(C)[nH]n2)nc(Sc2ccc(S(=O)(=O)Cc3cccc(N(C)C)c3)cc2)nc1N1CCN(CCN(C)C)CC1 | < 1000 nM
36 | Cc1cc(Nc2nc(Sc3ccc(NC(=O)C4CC4)cc3)nc(N3CCC(O)CC3)c2C)n[nH]1 | < 1000 nM
37 | COc1c(Nc2cc(C)[nH]n2)nc(Sc2ccc(NC(C)=O)cc2)nc1N1CCN(CCN2CCC(O)CC2)CC1 | 100 to 1000 nM
38 | COc1c(Nc2cc(C)[nH]n2)nc(Sc2ccc(S(=O)(=O)C3(c4cccc([N+](=O)[O-])c4F)CC3)cc2F)nc1N1CCC(CN)CC1 | < 1000 nM
39 | Cc1cc(Nc2nc(Sc3ccc(NC(=O)C4CC4)cc3)nc3c2CCC3)n[nH]1 | > 1000 nM
40 | COc1c(Nc2cc(C)[nH]n2)nc(Sc2ccc(S(=O)(=O)Cc3cccc(O)c3)cc2)nc1N1CCN(CCN(C)C)CC1 | < 1000 nM
41 | COc1c(Nc2cc(C)[nH]n2)nc(Sc2ccc(NC(C)=O)cc2)nc1N1CCC(N)CC1 | < 1000 nM
42 | COc1c(Nc2cc(C)[nH]n2)nc(Sc2ccc(S(=O)(=O)C(C)(C)c3cccc([N+](=O)[O-])c3F)cc2F)nc1N1CCN(CCNC(=O)C(F)(F)F)CC1 | < 1000 nM
43 | CCN(C)c1nc(Sc2ccc(NC(C)=O)cc2)nc(Nc2cc(C)[nH]n2)c1OC | < 1000 nM
44 | COc1c(Nc2cc(C)[nH]n2)nc(Sc2ccc(S(=O)(=O)Cc3ccccc3F)cc2)nc1N1CCN(CCN(C)C)CC1 | < 1000 nM
45 | COc1c(Nc2cc(C)[nH]n2)nc(Sc2ccc(-c3cc4cccc([N+](=O)[O-])c4o3)cc2F)nc1N1CCOCC1 | < 1000 nM
46 | CCOc1c(Nc2cc(C)[nH]n2)nc(Sc2ccc(NC(=O)C3CC3)cc2)nc1N(C)CC [drawing 128] | 100 to 1000 nM
47 | COc1c(Nc2cc(C)[nH]n2)nc(Sc2ccc(NC(C)=O)cc2)nc1N1CCN(CC(=O)N2CCOCC2)CC1 | < 1000 nM
48 | CCOc1c(Nc2cc(C)[nH]n2)nc(Sc2ccc(NC(C)=O)cc2)nc1N1CCOCC1 | 100 to 1000 nM
49 | COc1c(Nc2cc(C)[nH]n2)nc(Sc2ccc(S(=O)(=O)Cc3ccccc3)cc2)nc1N1CC2CCC(C1)O2 | < 1000 nM
50 | COc1c(Nc2cc(C)[nH]n2)nc(Sc2ccc(S(=O)(=O)Cc3cc(F)cc([N+](=O)[O-])c3)cc2)nc1N1CCN(CCN(C)C)CC1 | < 1000 nM

Row | SMILES | IC50
51 | COc1c(Nc2cc(C)[nH]n2)nc(Sc2ccc(NC(C)=O)cc2)nc1N1CCN(C2CCN(C)CC2)CC1 | < 1000 nM
52 | CNC(=O)Nc1ccc(Sc2nc(Nc3cc(C)[nH]n3)c(OC)c(N3CCN(CCN(C)C)CC3)n2)cc1 | < 1000 nM
53 | COc1c(Nc2cc(C)[nH]n2)nc(Sc2ccc([S+](C)[O-])cc2)nc1N1CCN(CCN(C)C)CC1 (stereo not shown) | < 1000 nM
54 | Cc1cc(Nc2nc(Sc3ccc(N)cc3)nc3c2CCC32CCN(CCN(C)C)CC2)n[nH]1 | < 1000 nM
55 | CCOc1c(Nc2cc(C)[nH]n2)nc(Sc2ccc(S(=O)(=O)Cc3ccccc3)cc2)nc1N1CCN(CCN(C)C)CC1 | < 1000 nM
56 | COc1c(Nc2cc(C)[nH]n2)nc(Sc2ccc(S(C)(=O)=O)cc2F)nc1N1CCOC[C@@H]1C | < 1000 nM
57 | COc1c(Nc2cc(C)[nH]n2)nc(Sc2ccc(NC(C)=O)cc2)nc1N1CCN(C)CC1 | < 1000 nM
58 | COc1c(Nc2cc(C)[nH]n2)nc(Sc2ccc(S(=O)(=O)Cc3ccccc3-c3ccccc3)cc2)nc1N1CCN(CCN(C)C)CC1 | < 1000 nM
59 | CC(=O)Nc1ccc(Sc2nc(Nc3cc(C)[nH]n3)c(C)c(N3CCC(F)CC3)n2)cc1 | < 1000 nM
60 | CCOc1c(Nc2cc(C)[nH]n2)nc(Sc2ccc(NC(=O)C3CCCC3)cc2)nc1N1CCN(C(=O)COC)CC1 | 100 to 1000 nM
61 | COc1c(Nc2cc(C)[nH]n2)nc(Sc2ccc(NC(=O)C3CC3)cc2)nc1N1CCC(O)CC1 | < 1000 nM
62 | COc1c(Nc2cc(C)[nH]n2)nc(Sc2ccc(NC(C)=O)cc2)nc1N1CCN(CCN2CCCCCCC2)CC1 | < 1000 nM
63 | COc1c(Nc2cc(C)[nH]n2)nc(Sc2ccc(NC(=O)C3CCCC3)cc2)nc1N1CCOCC1 | < 1000 nM
64 | CCS(=O)(=O)c1ccc(Sc2nc(Nc3cc(C)[nH]n3)c(OC)c(N3CCN(CCN(C)C)CC3)n2)cc1 | < 1000 nM
65 | CC(=O)Nc1ccc(Sc2nc(Nc3cc(C)[nH]n3)c(C)c(N3CCCCCC3)n2)cc1 | < 1000 nM
66 | COc1c(Nc2cc(C)[nH]n2)nc(Sc2ccc(S(=O)(=O)Cc3cccc([N+](=O)[O-])c3)cc2)nc1N1CCOC[C@H]1C | < 1000 nM
67 | CCOc1c(Nc2cc(C)[nH]n2)nc(Sc2ccc(S(=O)(=O)CC)cc2)nc1N1CCN(CCN(C)C)CC1 | < 1000 nM
68 | COc1c(Nc2cc(C)[nH]n2)nc(Sc2ccc(NC(C)=O)cc2)nc1N1CCC(CCN2CCCCC2)CC1 | 100 to 1000 nM
69 | CC(=O)Nc1ccc(Sc2nc(Nc3cc(C)[nH]n3)c(C)c(N3CCCC3)n2)cc1 | < 1000 nM
70 | CCOc1c(Nc2cc(C)[nH]n2)nc(Sc2ccc(NC(=O)C3CC3)cc2)nc1N(C)CC [drawing 124] | < 1000 nM
71 | Cc1ccc(Sc2nc(Nc3cc(C)[nH]n3)c(C)c(N3CCCCC3)n2)cc1 | < 1000 nM
72 | COc1c(Nc2cc(C)[nH]n2)nc(Sc2ccc(S(=O)(=O)Cc3cccc(F)c3F)cc2F)nc1N1CCOC[C@@H]1C | < 1000 nM
73 | COc1c(Nc2cc(C)[nH]n2)nc(Sc2ccc(NC(C)=O)cc2)nc1N1CCCC1 | < 1000 nM
